Laboratory results as given in US12421243B2, “Pharmaceutically effective compounds inhibiting selectively the myosin 2 isoforms” (PRINTNET KERESKEDELMI ÉS SZOLGÁLTATÓ KFT., priority 2018, dated 2025).

Assays:
[1] = molecular target: isolated smooth muscle myosin (UniProt P10587); format: biochemical, chamois; conditions: concentration required for semi-maximal inhibition of ATPase
Description: (ii) the concentration required for semi-maximal inhibition.

[2] = solubility in PBS in the presence of 1% DMSO; format: physicochemical; conditions: phosphate buffered saline with 1% DMSO, aqueous buffer, kinetic from dmso stock, PBS w/o Mg, Ca
[3] = molecular target: recombinant human non-muscle myosin 2 NM2C (Homo sapiens, UniProt Q7Z406); assay: actomyosin steady state ATPase measurement, NM2C; format: biochemical; conditions: for IC50: concentration required for semi-maximal inhibition of ATPase; for % inhibition. complete NM2C: maximum value of inhibition of ATPase activity; for inhibition at 5 µM: read-out: % inhibition at 5 μM (or 10 μM if racemate) NM2C, 5 μM (10 μM if racemate); for inhibition at 5 µM / inhibition at 50 µM: ATPase activity; for inhibition at 50 µM: read-out: % inhibition at 50 μM (or 100 μM if racemate) NM2C, 50 μM (100 μM if racemate)
Description: (§1) […]; (ii) the concentration required for semi-maximal inhibition.

[4] = molecular target: T1, isolated porcine cardiac ventricular myocardium (cardiac) (Sus scrofa, UniProt P79293); assay: actomyosin steady state ATPase measurement, cardiac myosin; format: biochemical; conditions: for IC50: concentration required for semi-maximal inhibition of ATPase; for % inhibition. complete cardiac: maximum value of inhibition of ATPase activity; for inhibition at 5 µM: read-out: % inhibition at 5 μM (or 10 μM if racemate) cardiac, 5 μM (10 μM if racemate); for inhibition at 5 µM / inhibition at 50 µM: ATPase activity; for inhibition at 50 µM: read-out: % inhibition at 50 μM (or 100 μM if racemate) cardiac, 50 μM (100 μM if racemate)
T1 construct: isolated porcine cardiac ventricular myocardium (cardiac); from tissue; host or cells: porcine cardiac ventricle
Description: as §1

[5] = molecular target: isolated smooth muscle myosin (UniProt P10587); format: biochemical, chamois; conditions: for % inhibition at 5 μM (or 10 μM if racemate) Smooth: 5 μM (10 μM if racemate); for % inhibition at 5 μM (or 10 μM if racemate) Smooth / % inhibition at 50 μM (or 100 μM if racemate) Smooth: ATPase activity; for % inhibition at 50 μM (or 100 μM if racemate) Smooth: 50 μM (100 μM if racemate); for % inhibition. complete Smooth: maximum value of inhibition of ATPase activity
[6] = molecular target: recombinant Dictyostelium miozin (Dictyostelium) (Dictyostelium discoideum, UniProt P08799); assay: actomyosin steady state ATPase measurement, Dictyostelium myosin; format: biochemical; conditions: for IC50: concentration required for semi-maximal inhibition of ATPase, read-out: IC50 (μM) Dicty; for % inhibition. complete Dicty: maximum value of inhibition of ATPase activity; for inhibition at 5 µM: read-out: % inhibition at 5 μM (or 10 μM if racemate) Dicty; for inhibition at 50 µM: read-out: % inhibition at 50 μM (or 100 μM if racemate) Dicty
Description: as §1

[7] = molecular target: recombinant human non-muscle myosin 2 NM2A (Homo sapiens, UniProt P35579); assay: actomyosin steady state ATPase measurement, NM2A; format: biochemical; conditions: for IC50: concentration required for semi-maximal inhibition of ATPase; for % inhibition. complete NM2A: maximum value of inhibition of ATPase activity; for inhibition at 5 µM: read-out: % inhibition at 5 μM (or 10 μM if racemate) NM2A, 5 μM (10 μM if racemate); for inhibition at 5 µM / inhibition at 50 µM: ATPase activity; for inhibition at 50 µM: read-out: % inhibition at 50 μM (or 100 μM if racemate) NM2A, 50 μM (100 μM if racemate)
Description: as §1

[8] = system: isolated rabbit skeletal muscle myosin (skeletal); assay: actomyosin steady state ATPase measurement, skeletal muscle myosin; format: biochemical; conditions: for % inhibition at 5 μM (or 10 μM if racemate) Skeletal: 5 μM (10 μM if racemate); for % inhibition at 5 μM (or 10 μM if racemate) Skeletal / % inhibition at 50 μM (or 100 μM if racemate) Skeletal: ATPase activity; for % inhibition at 50 μM (or 100 μM if racemate) Skeletal: 50 μM (100 μM if racemate); for IC50: concentration required for semi-maximal inhibition of ATPase; for % inhibition. complete Skeletal: maximum value of inhibition of ATPase activity
Description: as §1

M. quadriceps femoris = assay: isometric force measurement of live, anesthetized rat M. quadriceps femoris due to electrical stimulation; format: in vivo
Experimental: The maximum isometric force induced by the stimulation was determined after intraperitoneal injection of some of the compounds of the invention. During the measurement, the following parameters of live anesthetized rats were continuously monitored: • a) heart rate • b) blood flow in the neck arteries • c) respiratory frequency • d) blood oxygen saturation ratio Results from live anesthetized rats are summarized in the table below.

[9] = vital parameters of live anesthetized rats monitored during isometric force measurement; format: in vivo; conditions: anesthetized rat; for Maximum change of vital parameters (%) blood flow: neck arteries
Experimental: The maximum isometric force induced by the stimulation was determined after intraperitoneal injection of some of the compounds of the invention. During the measurement, the following parameters of live anesthetized rats were continuously monitored: • a) heart rate • b) blood flow in the neck arteries • c) respiratory frequency • d) blood oxygen saturation ratio

Sequence of isolated smooth muscle myosin (P10587 whole entry): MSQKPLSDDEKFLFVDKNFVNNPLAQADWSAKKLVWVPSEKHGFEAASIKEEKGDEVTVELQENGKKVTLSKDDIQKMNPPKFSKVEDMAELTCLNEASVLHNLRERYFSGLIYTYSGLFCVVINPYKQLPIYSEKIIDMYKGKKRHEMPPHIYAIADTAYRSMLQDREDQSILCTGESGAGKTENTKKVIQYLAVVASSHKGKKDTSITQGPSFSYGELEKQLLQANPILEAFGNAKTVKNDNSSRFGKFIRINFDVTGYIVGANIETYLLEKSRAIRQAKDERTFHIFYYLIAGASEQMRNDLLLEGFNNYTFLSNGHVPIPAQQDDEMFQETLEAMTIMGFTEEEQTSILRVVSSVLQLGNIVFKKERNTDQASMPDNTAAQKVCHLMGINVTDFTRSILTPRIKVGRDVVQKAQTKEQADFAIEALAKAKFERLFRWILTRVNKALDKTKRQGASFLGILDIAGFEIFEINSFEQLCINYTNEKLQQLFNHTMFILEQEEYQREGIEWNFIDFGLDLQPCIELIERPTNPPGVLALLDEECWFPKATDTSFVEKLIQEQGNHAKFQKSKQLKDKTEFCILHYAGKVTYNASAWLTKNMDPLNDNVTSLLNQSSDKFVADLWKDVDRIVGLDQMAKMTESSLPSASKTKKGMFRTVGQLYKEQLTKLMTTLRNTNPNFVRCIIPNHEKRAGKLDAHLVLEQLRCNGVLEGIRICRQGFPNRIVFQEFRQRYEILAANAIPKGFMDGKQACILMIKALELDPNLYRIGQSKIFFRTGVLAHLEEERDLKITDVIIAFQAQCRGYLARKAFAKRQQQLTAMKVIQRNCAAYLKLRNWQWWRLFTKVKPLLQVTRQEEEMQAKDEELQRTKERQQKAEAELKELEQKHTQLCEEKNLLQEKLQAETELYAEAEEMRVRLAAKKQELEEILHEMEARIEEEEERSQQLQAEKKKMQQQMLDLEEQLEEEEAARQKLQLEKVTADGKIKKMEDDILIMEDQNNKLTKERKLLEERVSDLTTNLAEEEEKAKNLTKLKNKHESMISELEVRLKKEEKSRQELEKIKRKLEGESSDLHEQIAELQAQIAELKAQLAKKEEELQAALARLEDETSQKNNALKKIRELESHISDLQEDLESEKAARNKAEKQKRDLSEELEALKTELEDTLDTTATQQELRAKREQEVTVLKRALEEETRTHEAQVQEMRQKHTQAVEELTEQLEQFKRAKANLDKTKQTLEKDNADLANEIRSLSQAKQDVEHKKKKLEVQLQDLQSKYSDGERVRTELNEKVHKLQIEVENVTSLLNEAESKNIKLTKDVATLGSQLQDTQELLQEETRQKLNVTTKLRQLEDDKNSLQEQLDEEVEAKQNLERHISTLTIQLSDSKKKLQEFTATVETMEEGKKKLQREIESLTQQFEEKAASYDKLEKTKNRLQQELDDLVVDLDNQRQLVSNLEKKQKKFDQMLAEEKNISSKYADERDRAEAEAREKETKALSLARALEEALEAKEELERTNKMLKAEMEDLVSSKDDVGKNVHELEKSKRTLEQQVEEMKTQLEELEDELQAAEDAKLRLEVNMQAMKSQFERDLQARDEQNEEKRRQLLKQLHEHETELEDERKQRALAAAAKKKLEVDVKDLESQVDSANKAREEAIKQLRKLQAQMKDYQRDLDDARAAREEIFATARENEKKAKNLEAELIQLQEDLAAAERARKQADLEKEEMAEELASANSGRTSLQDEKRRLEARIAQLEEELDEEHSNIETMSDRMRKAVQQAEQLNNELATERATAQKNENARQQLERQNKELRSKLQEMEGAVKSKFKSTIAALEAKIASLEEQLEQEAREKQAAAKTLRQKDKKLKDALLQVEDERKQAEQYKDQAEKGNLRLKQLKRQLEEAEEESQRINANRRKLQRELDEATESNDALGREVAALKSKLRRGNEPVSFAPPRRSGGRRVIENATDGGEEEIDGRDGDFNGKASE
Sequence of recombinant Dictyostelium miozin (Dictyostelium) (P08799 whole entry): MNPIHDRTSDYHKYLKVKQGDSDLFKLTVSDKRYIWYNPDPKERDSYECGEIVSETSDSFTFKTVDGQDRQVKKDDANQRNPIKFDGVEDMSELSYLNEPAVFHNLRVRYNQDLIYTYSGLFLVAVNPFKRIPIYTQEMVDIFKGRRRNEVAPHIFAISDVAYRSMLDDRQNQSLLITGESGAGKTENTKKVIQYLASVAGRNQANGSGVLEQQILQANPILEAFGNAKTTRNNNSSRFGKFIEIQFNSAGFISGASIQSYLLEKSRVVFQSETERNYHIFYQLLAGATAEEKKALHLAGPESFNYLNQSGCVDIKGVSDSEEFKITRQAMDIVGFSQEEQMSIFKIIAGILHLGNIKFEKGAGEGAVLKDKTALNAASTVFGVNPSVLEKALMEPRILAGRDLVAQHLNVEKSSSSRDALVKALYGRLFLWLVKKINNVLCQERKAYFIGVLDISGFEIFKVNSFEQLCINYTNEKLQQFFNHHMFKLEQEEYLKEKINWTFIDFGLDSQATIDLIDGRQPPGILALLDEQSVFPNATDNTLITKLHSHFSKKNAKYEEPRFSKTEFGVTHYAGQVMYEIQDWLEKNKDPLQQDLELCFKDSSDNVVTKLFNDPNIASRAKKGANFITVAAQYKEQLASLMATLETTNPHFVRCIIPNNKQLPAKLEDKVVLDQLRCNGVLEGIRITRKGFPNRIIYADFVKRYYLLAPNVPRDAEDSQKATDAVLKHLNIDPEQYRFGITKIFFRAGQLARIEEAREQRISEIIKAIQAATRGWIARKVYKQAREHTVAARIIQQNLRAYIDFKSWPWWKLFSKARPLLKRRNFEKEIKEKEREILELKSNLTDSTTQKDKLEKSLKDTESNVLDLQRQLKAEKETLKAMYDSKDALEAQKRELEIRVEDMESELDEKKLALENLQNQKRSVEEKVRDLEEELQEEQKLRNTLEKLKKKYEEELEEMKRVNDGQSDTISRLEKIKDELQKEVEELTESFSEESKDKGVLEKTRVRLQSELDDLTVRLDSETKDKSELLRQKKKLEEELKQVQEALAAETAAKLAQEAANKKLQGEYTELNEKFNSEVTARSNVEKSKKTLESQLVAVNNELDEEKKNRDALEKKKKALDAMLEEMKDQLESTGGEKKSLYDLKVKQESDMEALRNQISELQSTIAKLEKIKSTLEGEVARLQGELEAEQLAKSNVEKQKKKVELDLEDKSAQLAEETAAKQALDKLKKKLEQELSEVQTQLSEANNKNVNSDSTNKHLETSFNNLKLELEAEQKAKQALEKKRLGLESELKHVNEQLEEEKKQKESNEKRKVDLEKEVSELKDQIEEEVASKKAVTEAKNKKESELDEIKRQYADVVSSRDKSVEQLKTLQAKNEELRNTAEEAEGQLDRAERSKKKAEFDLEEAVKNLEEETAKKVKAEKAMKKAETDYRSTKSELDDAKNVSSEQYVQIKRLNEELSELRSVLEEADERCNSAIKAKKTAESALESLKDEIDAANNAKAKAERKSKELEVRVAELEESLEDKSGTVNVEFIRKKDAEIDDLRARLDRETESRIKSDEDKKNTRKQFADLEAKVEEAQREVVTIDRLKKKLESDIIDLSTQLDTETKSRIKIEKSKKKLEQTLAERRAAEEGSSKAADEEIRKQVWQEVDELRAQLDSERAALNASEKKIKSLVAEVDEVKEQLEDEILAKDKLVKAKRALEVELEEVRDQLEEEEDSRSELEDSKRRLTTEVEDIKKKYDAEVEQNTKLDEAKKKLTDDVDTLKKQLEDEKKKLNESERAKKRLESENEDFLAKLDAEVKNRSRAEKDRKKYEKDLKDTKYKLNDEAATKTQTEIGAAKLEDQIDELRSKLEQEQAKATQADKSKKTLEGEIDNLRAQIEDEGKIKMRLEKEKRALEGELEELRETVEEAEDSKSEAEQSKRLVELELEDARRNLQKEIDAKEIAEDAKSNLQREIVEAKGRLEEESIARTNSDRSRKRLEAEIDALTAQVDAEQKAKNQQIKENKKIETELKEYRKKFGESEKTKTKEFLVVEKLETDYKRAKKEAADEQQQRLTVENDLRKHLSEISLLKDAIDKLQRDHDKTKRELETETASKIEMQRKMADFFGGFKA

SMILES: N#Cc1ccc(N2CC[C@@]3(O)C(=O)c4ccsc4N=C23)cc1 [Compound 213, (9S)-4-{9-Hydroxy-8-oxo-4-thia-2,12-diazatricyclo[7.3.0.0^3,7]dodeca-1,3(7),5-trien-12-yl}benzonitrile]
- IC50 [1]: 18 µM
- solubility [2]: 410 µM
- IC50 [3]: 8 µM
- % inhibition. complete NM2C [3]: 63%
- inhibition at 5 µM [3]: 22%
- inhibition at 50 µM [3]: 54%
- IC50 [4]: 1.8 µM
- % inhibition. complete cardiac [4]: 87%
- inhibition at 5 µM [4]: 61%
- inhibition at 50 µM [4]: 84%
- % inhibition at 5 μM (or 10 μM if racemate) Smooth [5]: 16%
- % inhibition at 50 μM (or 100 μM if racemate) Smooth [5]: 57%
- % inhibition. complete Smooth [5]: 78%
- IC50 [6]: 3.5 µM
- Inhibition (%) Dicty ([6]; maximum inhibition, compounds in IC50 range 1-11 μM): 87%
- % inhibition. complete Dicty [6]: 87%
- inhibition at 5 µM [6]: 50%
- inhibition at 50 µM [6]: 81%
- IC50 [7]: 23 µM
- % inhibition. complete NM2A [7]: 74%
- inhibition at 5 µM [7]: 13%
- inhibition at 50 µM [7]: 51%
- % inhibition at 5 μM (or 10 μM if racemate) Skeletal [8]: 89%
- % inhibition at 50 μM (or 100 μM if racemate) Skeletal [8]: 98%
- IC50 [8]: 0.58 µM
- % inhibition. complete Skeletal [8]: 99%

SMILES: Cc1cc2c(s1)N=C1N(c3ccc(OC(F)(F)F)cc3)CCC1(O)C2=O (stereo not drawn) [Compound 223, 9-Hydroxy-5-methyl-12-[4-(trifluoromethoxy)phenyl]-4-thia-2,12-diazatricyclo[7.3.0.0^3,7]dodeca-1,3(7),5-trien-8-one]
- IC50 [1]: 1.1 µM
- IC50 [3]: 3 µM
- % inhibition. complete NM2C [3]: 88%
- inhibition at 5 µM [3]: 52%
- inhibition at 50 µM [3]: 82%
- IC50 [4]: 2.2 µM
- % inhibition. complete cardiac [4]: 98%
- inhibition at 5 µM [4]: 68%
- inhibition at 50 µM [4]: 93%
- % inhibition at 5 μM (or 10 μM if racemate) Smooth [5]: 79%
- % inhibition at 50 μM (or 100 μM if racemate) Smooth [5]: 99%
- % inhibition. complete Smooth [5]: 100%
- Maximum change in isometric force at rear leg (%) (M. quadriceps femoris; 0.2 mg i.p.): 23%
- Maximum change in isometric force at rear leg (%) (M. quadriceps femoris; 1 mg i.p.): 25%
- Maximum change of vital parameters (%) heart rate ([9]; 0.2 mg i.p.): 5%
- Maximum change of vital parameters (%) oxygen saturation ([9]; 0.2 mg i.p.): −10%
- Maximum change of vital parameters (%) respiratory frequency ([9]; 0.2 mg i.p.): −13%
- Maximum change of vital parameters (%) blood flow ([9]; 0.2 mg i.p.): 8%
- Maximum change of vital parameters (%) heart rate ([9]; 1 mg i.p.): 19%
- Maximum change of vital parameters (%) oxygen saturation ([9]; 1 mg i.p.): −7%
- Maximum change of vital parameters (%) respiratory frequency ([9]; 1 mg i.p.): −22%
- Maximum change of vital parameters (%) blood flow ([9]; 1 mg i.p.): 25%
- IC50 [6]: 11.1 µM
- % inhibition. complete Dicty [6]: 100%
- inhibition at 5 µM [6]: 21%
- inhibition at 50 µM [6]: 96%
- % inhibition at 5 μM (or 10 μM if racemate) Skeletal [8]: 95%
- % inhibition at 50 μM (or 100 μM if racemate) Skeletal [8]: 95%
- IC50 [8]: 0.012 µM
- % inhibition. complete Skeletal [8]: 95%

SMILES: COc1ccc(N2CC[C@@]3(O)C(=O)c4ccsc4N=C23)cc1 [Compound 211, (9S)-9-hydroxy-12-(4-methoxyphenyl)-4-thia-2,12-diazatricyclo[7.3.0.0^3,7]dodeca-1,3(7),5-trien-8-one]
- IC50 [1]: 7 µM
- solubility [2]: 510 µM
- IC50 [3]: 2 µM
- % inhibition. complete NM2C [3]: 70%
- inhibition at 5 µM [3]: 46%
- inhibition at 50 µM [3]: 67%
- IC50 [4]: 1.3 µM
- % inhibition. complete cardiac [4]: 87%
- inhibition at 5 µM [4]: 67%
- inhibition at 50 µM [4]: 85%
- % inhibition at 5 μM (or 10 μM if racemate) Smooth [5]: 34%
- % inhibition at 50 μM (or 100 μM if racemate) Smooth [5]: 74%
- % inhibition. complete Smooth [5]: 85%
- IC50 [6]: 9.4 µM
- % inhibition. complete Dicty [6]: 100%
- inhibition at 5 µM [6]: 33%
- inhibition at 50 µM [6]: 85%
- IC50 [7]: 22 µM
- % inhibition. complete NM2A [7]: 99%
- inhibition at 5 µM [7]: 17%
- inhibition at 50 µM [7]: 69%
- % inhibition at 5 μM (or 10 μM if racemate) Skeletal [8]: 93%
- % inhibition at 50 μM (or 100 μM if racemate) Skeletal [8]: 98%
- IC50 [8]: 0.28 µM
- % inhibition. complete Skeletal [8]: 98%

SMILES: CC(=O)c1ccc(N2CC[C@@]3(O)C(=O)c4ccsc4N=C23)cc1 [Compound 214, (9S)-12-(4-acetylphenyl)-9-hydroxy-4-thia-2,12-diazatricyclo[7.3.0.0^3,7]dodeca-1,3(7),5-trien-8-one]
- IC50 [1]: 49 µM
- solubility [2]: 820 µM
- IC50 [3]: 2.9 µM
- Inhibition (%) NM2C ([3]; maximum inhibition, compounds in IC50 range 1-5 μM): 36%
- % inhibition. complete NM2C [3]: 36%
- inhibition at 5 µM [3]: 21%
- inhibition at 50 µM [3]: 34%
- IC50 [4]: 8.8 µM
- % inhibition. complete cardiac [4]: 86%
- inhibition at 5 µM [4]: 30%
- inhibition at 50 µM [4]: 73%
- % inhibition at 5 μM (or 10 μM if racemate) Smooth [5]: 6%
- % inhibition at 50 μM (or 100 μM if racemate) Smooth [5]: 52%
- % inhibition. complete Smooth [5]: 100%
- IC50 [6]: 36 µM
- % inhibition. complete Dicty [6]: 100%
- inhibition at 5 µM [6]: 8%
- inhibition at 50 µM [6]: 59%
- IC50 [7]: 1 µM
- % inhibition. complete NM2A [7]: 32%
- inhibition at 5 µM [7]: 25%
- inhibition at 50 µM [7]: 31%
- % inhibition at 5 μM (or 10 μM if racemate) Skeletal [8]: 80%
- % inhibition at 50 μM (or 100 μM if racemate) Skeletal [8]: 97%
- IC50 [8]: 1.2 µM
- % inhibition. complete Skeletal [8]: 100%

SMILES: Nc1ccc(N2CC[C@@]3(O)C(=O)c4ccsc4N=C23)cc1 [Compound 210, (9S)-12-(4-aminophenyl)-9-hydroxy-4-thia-2,12-diazatricyclo[7.3.0.0^3,7]dodeca-1,3(7),5-trien-8-one]
- IC50 [1]: 12.5 µM
- solubility [2]: 1360 µM
- IC50 [3]: 5.2 µM
- % inhibition. complete NM2C [3]: 41%
- inhibition at 5 µM [3]: 18%
- inhibition at 50 µM [3]: 38%
- IC50 [4]: 6 µM
- % inhibition. complete cardiac [4]: 82%
- inhibition at 5 µM [4]: 36%
- inhibition at 50 µM [4]: 73%
- % inhibition at 5 μM (or 10 μM if racemate) Smooth [5]: 9%
- % inhibition at 50 μM (or 100 μM if racemate) Smooth [5]: 28%
- % inhibition. complete Smooth [5]: 37%
- IC50 [6]: > 100 µM
- % inhibition. complete Dicty [6]: 100%
- inhibition at 5 µM [6]: 3%
- inhibition at 50 µM [6]: 34%
- IC50 [7]: > 100 µM
- % inhibition. complete NM2A [7]: 100%
- inhibition at 5 µM [7]: 0%
- inhibition at 50 µM [7]: 14%
- % inhibition at 5 μM (or 10 μM if racemate) Skeletal [8]: 44%
- % inhibition at 50 μM (or 100 μM if racemate) Skeletal [8]: 84%
- IC50 [8]: 5.6 µM
- % inhibition. complete Skeletal [8]: 94%
